Laboratory results taken from paper PMC11149917, “Translational and Therapeutic Evaluation of RAS-GTP Inhibition by RMC-6236 in RAS-Driven Cancers” (Cancer Discovery, 2024).

Test system: PRISM panel of 845 cancer cell lines
Assay: PRISM assay
Assay type: cell-based, human
Procedure: The PRISM cell set comprised 845 cell lines representing more than 45 lineages (see Supplementary Table S1 for cell line information), which largely overlapped with the Cancer Cell Line Encyclopedia; https://portals.broadinstitute.org/ccle). Cell lines were grown in RPMI without phenol red and supplemented with 10% or 20% FBS for adherent and suspended lines, respectively. Parental cell lines were stably infected with a unique 24-nucleotide DNA barcode via lentiviral transduction and blasticidin selection. After selection, barcoded cell lines were expanded and subjected to quality control (Mycoplasma contamination test, an SNP test for confirming cell line identity, and barcode ID confirmation). Approved cell lines were then pooled (20–25 cell lines per pool) based on doubling time similarity and frozen in assay-ready vials.
RMC-6236 was added to 384-well plates at 8-point concentration with 3-fold dilutions in triplicate. These assay-ready plates were then seeded with the thawed cell line pools. Adherent cell pools were plated at 1,250 cells per well, whereas suspension and mixed adherent/suspension pools were plated at 2,000 cells per well. Treated cells were incubated for 5 days, and then lysed. Lysate plates were collapsed together prior to barcode amplification and detection.
Each cell line's unique barcode is located in the 3′UTR of the blasticidin-resistance gene and therefore is expressed as mRNA. Total mRNA was captured using magnetic particles that recognize polyA sequences. Captured mRNA was reverse-transcribed into cDNA and then the sequence containing the unique PRISM barcode was amplified using PCR. Finally, Luminex beads that recognize the specific barcode sequences in the cell set were hybridized to the PCR products and detected using a Luminex scanner which reports the signal as a median fluorescent intensity (MFI).
• Each detection well contained 10 control barcodes in increasing abundances as spike-in controls. For each plate, we first create a reference profile by calculating the median of the log2(MFI) values across negative control wells for each of these spiked-in barcodes. • For each well, a monotonic smooth p-spline was fitted to map the spike-in control levels to the reference profile. Next, we transform the log2(MFI) for each cell barcode using the fitted spline to allow well-to-well comparisons by correcting for amplification and detection artifacts. • Next, the separability between negative and positive control treatments was assessed. In particular, we calculated the error rate of the optimum simple threshold classifier between the control samples for each cell line and plate combination. The error rate is a measure of the overlap of the two control sets and was defined as error = (FP + FN)/n, where FP is false positives, FN is false negatives, and n is the total number of controls. A threshold was set between the distributions of positive and negative control log2(MFI) values (with everything below the threshold said to be positive and above said to be negative) such that this value is minimized. Additionally, we also calculated the dynamic range of each cell line. […] Additionally, any cell line that had less than 2 passing replicates was also omitted for the sake of reproducibility. Finally, we computed viability by normalizing with respect to the median negative control for each plate.
For every gene with nonsilent mutations in at least four cell lines, we compared the AUC values between cells with and without those mutations using a t test. This analysis was carried out for (i) the full data set; (ii) excluding cell lines with nonsilent KRAS mutations; and (iii) excluding cell lines that have either KRAS or NRAS nonsilent mutations.

In the case of CCn1c(-c2cc(N3CCN(C)CC3)cnc2[C@H](C)OC)c2c3cc(ccc31)-c1csc(n1)C[C@H](NC(=O)[C@H]1C[C@@H]1C)C(=O)N1CCC[C@H](N1)C(=O)OCC(C)(C)C2 [RMC-6236], the “RMC-6236: RevMed PRISM: AUC” value (22RV1_PROSTATE) is reported as 0.9065, the “RMC-6236: RevMed PRISM: AUC” value (A427_LUNG, KRAS p.G12D) is reported as 0.4282 and the “RMC-6236: RevMed PRISM: AUC” value (A704_KIDNEY) is reported as 1. For the same compound, the “RMC-6236: RevMed PRISM: AUC” value (A1207_CENTRAL_NERVOUS_SYSTEM) was 1, the “RMC-6236: RevMed PRISM: AUC” value (BICR16_UPPER_AERODIGESTIVE_TRACT) was 0.548 and the “RMC-6236: RevMed PRISM: AUC” value (CAL54_KIDNEY) was 1. For the same compound, the “RMC-6236: RevMed PRISM: AUC” value (CAL72_BONE) was 0.8456, the “RMC-6236: RevMed PRISM: AUC” value (CAL120_BREAST) was 0.7982 and the “RMC-6236: RevMed PRISM: AUC” value (CHLA15_AUTONOMIC_GANGLIA) was 0.6747. The “RMC-6236: RevMed PRISM: AUC” value (COLO678_LARGE_INTESTINE, KRAS p.G12D) was 0.7109, the “RMC-6236: RevMed PRISM: AUC” value (COLO679_SKIN) was 0.8171 and the “RMC-6236: RevMed PRISM: AUC” value (CORL23_LUNG, KRAS p.G12V) was 0.4445. For the same compound, the “RMC-6236: RevMed PRISM: AUC” value (DETROIT562_UPPER_AERODIGESTIVE_TRACT) was 0.5051, the “RMC-6236: RevMed PRISM: AUC” value (DMS53_LUNG) was 0.9861 and the “RMC-6236: RevMed PRISM: AUC” value (EBC1_LUNG) was 0.478. For the same compound, the “RMC-6236: RevMed PRISM: AUC” value (ECGI10_OESOPHAGUS) was 0.6603, the “RMC-6236: RevMed PRISM: AUC” value (EW8_BONE) was 0.6608 and the “RMC-6236: RevMed PRISM: AUC” value (EWS502_BONE) was 0.706. For the same compound, the “RMC-6236: RevMed PRISM: AUC” value (FADU_UPPER_AERODIGESTIVE_TRACT) was 0.6934, the “RMC-6236: RevMed PRISM: AUC” value (G292CLONEA141B1_BONE) was 0.9519 and the “RMC-6236: RevMed PRISM: AUC” value (GB2_BILIARY_TRACT) was 0.6327. For the same compound, the “RMC-6236: RevMed PRISM: AUC” value (H357_UPPER_AERODIGESTIVE_TRACT, HRAS p.G13S) was 0.44, the “RMC-6236: RevMed PRISM: AUC” value (HARA_LUNG) was 0.583 and the “RMC-6236: RevMed PRISM: AUC” value (HCC827_LUNG) was 0.8007. For the same compound, the “RMC-6236: RevMed PRISM: AUC” value (HCC1195_LUNG, NRAS p.Q61L) was 0.7308, the “RMC-6236: RevMed PRISM: AUC” value (HCC1937_BREAST) was 0.9056 and the “RMC-6236: RevMed PRISM: AUC” value (HCSC1_CERVIX, NRAS p.G13R) was 1. The “RMC-6236: RevMed PRISM: AUC” value (HDQP1_BREAST) was 0.5485, the “RMC-6236: RevMed PRISM: AUC” value (HEYA8_OVARY, KRAS p.G12D) was 0.6142 and the “RMC-6236: RevMed PRISM: AUC” value (HT29_LARGE_INTESTINE) was 0.9177. For the same compound, the “RMC-6236: RevMed PRISM: AUC” value (HT115_LARGE_INTESTINE) was 0.7857, the “RMC-6236: RevMed PRISM: AUC” value (IGR39_SKIN) was 0.916 and the “RMC-6236: RevMed PRISM: AUC” value (JHH6_LIVER) was 0.7876. The “RMC-6236: RevMed PRISM: AUC” value (JHOC5_OVARY) was 0.7067, the “RMC-6236: RevMed PRISM: AUC” value (KE39_STOMACH) was 0.7632 and the “RMC-6236: RevMed PRISM: AUC” value (KE97_STOMACH) was 0.8452. The “RMC-6236: RevMed PRISM: AUC” value (KKU100_BILIARY_TRACT, KRAS p.G12D) was 0.4482, the “RMC-6236: RevMed PRISM: AUC” value (KKU213_BILIARY_TRACT, KRAS p.G13C) was 0.6654 and the “RMC-6236: RevMed PRISM: AUC” value (KLE_ENDOMETRIUM) was 0.9884. The “RMC-6236: RevMed PRISM: AUC” value (KMS34_HAEMATOPOIETIC_AND_LYMPHOID_TISSUE) was 0.7785, the “RMC-6236: RevMed PRISM: AUC” value (KOSC2CL343_UPPER_AERODIGESTIVE_TRACT) was 0.6166 and the “RMC-6236: RevMed PRISM: AUC” value (KP2_PANCREAS, KRAS p.G12R) was 0.4026. The “Median AUC (PRISM)” value (KRAS^MUT cell lines) was 0.57, the “RMC-6236: RevMed PRISM: AUC” value (KU1919_URINARY_TRACT, NRAS p.Q61R) was 0.3992 and the “RMC-6236: RevMed PRISM: AUC” value (KYSE30_OESOPHAGUS, HRAS p.Q61L) was 0.6346. For the same compound, the “RMC-6236: RevMed PRISM: AUC” value (KYSE150_OESOPHAGUS) was 0.7237, the “RMC-6236: RevMed PRISM: AUC” value (KYSE410_OESOPHAGUS, KRAS p.G12C) was 0.5271 and the “RMC-6236: RevMed PRISM: AUC” value (KYSE450_OESOPHAGUS) was 0.5198. For the same compound, the “RMC-6236: RevMed PRISM: AUC” value (LI7_LIVER) was 0.743, the “RMC-6236: RevMed PRISM: AUC” value (LOVO_LARGE_INTESTINE, KRAS p.G13D) was 0.6638 and the “RMC-6236: RevMed PRISM: AUC” value (LOXIMVI_SKIN) was 0.876. The “RMC-6236: RevMed PRISM: AUC” value (LS411N_LARGE_INTESTINE) was 1.
